Measurements: the supplement of paper PMC10307832

Columns and labels:
Assay in all cases: relative viability (nuclei count vs DMSO), 5 days (fraction); higher = more cells survive
[1] = compound: C[C@]1(O)C[C@@H](c2nc(-c3ccc4ccc(-c5ccccc5)nc4c3)c3c(N)nccn32)C1 [Linsitinib] + CCNC(=O)c1noc(-c2cc(C(C)C)c(O)cc2O)c1-c1ccc(CN2CCOCC2)cc1 [Luminespib] (partner 0.01 µM)
Procedure, shortened: (§1)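 Lung cancer cell lines in 1536-well plates got either a single drug or a fixed anchor-drug dose together with five library-drug doses (not always all listed) in √10 steps, by pin tool, on the day after seeding. Nuclei were counted after 5 days, and relative viability is the treated-to-vehicle ratio of nuclei counts. Values are medians of duplicate plates.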

[2] = compound: Cc1ccc(C(=O)N(CCCN)[C@@H](c2nc3cc(Cl)ccc3c(=O)n2Cc2ccccc2)C(C)C)cc1 [Ispinesib] + Cc1nc(NC(=O)N2CCC[C@H]2C(N)=O)sc1-c1ccnc(C(C)(C)C(F)(F)F)c1 [Alpelisib] (partner 2 µM)
Procedure, shortened: as §1

[3] = compound: C[C@]1(O)C[C@@H](c2nc(-c3ccc4ccc(-c5ccccc5)nc4c3)c3c(N)nccn32)C1 [Linsitinib] + CC(C)C[C@H](NC(=O)[C@H](Cc1ccccc1)NC(=O)c1cnccn1)B(O)O [Bortezomib] (partner 0.002 µM)
Procedure, shortened: as §1

[4] = compound: Cc1ccc(C(=O)N(CCCN)[C@@H](c2nc3cc(Cl)ccc3c(=O)n2Cc2ccccc2)C(C)C)cc1 [Ispinesib] + Cc1cc(Nc2cc(N3CCN(C)CC3)nc(Sc3ccc(NC(=O)C4CC4)cc3)n2)n[nH]1 [Tozasertib] (partner 0.1 µM)
Procedure, shortened: as §1

Row | Cell Line | relative viability ([1]; first compound 0.01 µM) | relative viability ([1]; first compound 0.03162 µM) | relative viability ([1]; first compound 0.1 µM) | relative viability ([1]; first compound 0.3162 µM) | relative viability ([1]; first compound 1 µM) | relative viability ([2]; first compound 0.001 µM) | relative viability ([2]; first compound 0.003162 µM) | relative viability ([2]; first compound 0.01 µM) | relative viability ([2]; first compound 0.03162 µM) | relative viability ([2]; first compound 0.1 µM) | relative viability ([3]; first compound 0.01 µM) | relative viability ([3]; first compound 0.03162 µM) | relative viability ([3]; first compound 0.1 µM) | relative viability ([3]; first compound 0.3162 µM) | relative viability ([3]; first compound 1 µM) | relative viability ([4]; first compound 0.001 µM) | relative viability ([4]; first compound 0.003162 µM) | relative viability ([4]; first compound 0.01 µM) | relative viability ([4]; first compound 0.03162 µM) | relative viability ([4]; first compound 0.1 µM)
1 | NCI-H460 | 0.044 | 0.0373 | 0.033 | 0.0397 | 0.0347 | 0.584 | 0.45 | 0.667 | 0.0767 | 0.0288 | 1.07 | 1.07 | 1.14 | 0.92 | 1.07 | 0.4 | 0.577 | 0.503 | 0.417 | 0.0671
2 | EMC-BAC-2 | 1.07 | 1.2 | 1.26 | 1.01 | 0.95 | 0.815 | 0.752 | 0.917 | 0.548 | 0.526 | 1.08 | 1.05 | 1.01 | 0.628 | 0.917 | 0.28 | 0.189 | 0.289 | 0.292 | 0.261
3 | CAL-12T | 0.469 | 0.303 | 0.515 | 0.303 | 0.355 | 1.05 | 1.29 | 1.38 | 0.624 | 0.142 | 0.873 | 0.882 | 0.996 | 0.833 | 0.817 | 0.244 | 0.361 | 0.296 | 0.213 | 0.222
4 | COR-L 105 | 0.857 | 0.688 | 0.644 | 0.638 | 0.581 | 1.15 | 0.952 | 0.89 | 0.562 | 0.35 | 0.821 | 0.619 | 0.785 | 0.389 | 0.501 | 0.378 | 0.358 | 0.365 | 0.343 | 0.329
5 | NCI-H2009 | 1.01 | 1.01 | 1.06 | – | 1.06 | 1.16 | 1.18 | 1.33 | 1.04 | 0.463 | 1.01 | 0.926 | 1.07 | 0.185 | 0.898 | 0.788 | 0.837 | 0.786 | 0.706 | 0.489
6 | NCI-H441 | 0.296 | 0.327 | 0.211 | 0.245 | 0.281 | 0.934 | 0.848 | 0.947 | 0.238 | 0.215 | 0.398 | 0.428 | 0.455 | 0.586 | 0.413 | 0.681 | 0.603 | 0.673 | 0.258 | 0.341
